Laboratory results reported in PubChem BioAssay AID1996.
In brackets after ≈: the same amount, converted by molar mass.

Conditions: buffer; pH 7.4; 200.0 µM

Row | SMILES | solubility kinetic
1 | OC(CCNCCc1c[nH]c2ccccc12)C(F)(F)Cl (stereo not given) | > 45.4 µg/mL
2 | Nc1ccc2c(c1)OC1(CCCCC1)O2 | 19.1 µg/mL (≈ 93.1 µM)
3 | COc1ccc(CNC(=O)CSc2nc3ccc(OC)cc3[nH]2)cc1 | > 53.6 µg/mL
4 | Clc1ncc(CN2CCN(c3ccccc3)CC2)s1 | 40.9 µg/mL (≈ 139 µM)
5 | COc1cc(C(=O)NC(c2ccccc2)c2ccccc2)cc(OC)c1C | < 0.8 µg/mL
6 | OCC(O)C1OC(Nc2ccc(Cl)cc2)C(O)C1O (stereo not given) | > 43.5 µg/mL
7 | CCCCOC(=O)C1=C(C)NC(=O)NC1c1ccc(OC)cc1 (stereo not given) | 14.6 µg/mL (≈ 45.9 µM)
8 | Cc1ccc(C(=O)N2CCN(c3ccccn3)CC2)cc1 | > 42.2 µg/mL
9 | C=CCn1c(O)c(C(CC)=Nc2cccc(C(=O)O)c2)c(=O)[nH]c1=O | > 51.5 µg/mL
10 | CCCCN(C)C(=O)c1nc2ccccn2c1CN1CCSCC1 | 48.3 µg/mL (≈ 139 µM)
11 | Cc1sc(NC(=O)CCC(=O)O)c(C#N)c1C | > 37.8 µg/mL
12 | CCOc1ccc(S(=O)(=O)N2CCN(C(=O)c3cc4ccccc4o3)CC2)cc1 | 6 µg/mL (≈ 14.5 µM)
13 | COc1ccc(CN(C(=O)c2cccs2)c2ccccc2)cc1 | 8.8 µg/mL (≈ 27.2 µM)
14 | O=C(O)COc1ccccc1-c1nc(-c2ccccc2)c(-c2ccccc2)[nH]1 | 46.1 µg/mL (≈ 124 µM)
15 | CC(C)NC(=O)CNc1ccc(C(F)(F)F)cc1[N+](=O)[O-] | 13.4 µg/mL (≈ 43.9 µM)
16 | CCc1ccc(NC2=CC(=O)C(=O)c3ccccc32)cc1 | 2.4 µg/mL (≈ 8.65 µM)
17 | O=C(Nc1ccncc1)C1CC(=O)N(c2ccc(F)cc2)C1 (stereo not given) | 39.3 µg/mL (≈ 131 µM)
18 | Nc1nc(F)cc(NCc2ccccc2)n1 | > 32.7 µg/mL
19 | O=S(=O)(c1ccc2ccccc2c1)N1CCNCC1 | 32.7 µg/mL (≈ 118 µM)
20 | CC1CCCCN1CC(O)COCc1ccc(Cl)cc1 (stereo not given) | 29.1 µg/mL (≈ 97.7 µM)
21 | CC(C)c1ccc(NC(=O)CC2Oc3ccccc3NC2=O)cc1 (stereo not given) | 1.3 µg/mL (≈ 4.01 µM)
22 | O=C(NC(=O)N1CCSCC1)c1c(Cl)cccc1Cl | > 47.9 µg/mL
23 | CCC1CCCCN1S(=O)(=O)c1ccccc1 (stereo not given) | 31.5 µg/mL (≈ 124 µM)
24 | CN(CCc1ccccc1)c1ccc([N+](=O)[O-])cn1 | 9.6 µg/mL (≈ 37.3 µM)

Row | SMILES | solubility kinetic
25 | Cc1cn(CCC(=O)Nc2ccc(N3CCOCC3)cc2)c2ccccc12 | 46.7 µg/mL (≈ 128 µM)
26 | Cc1cc[n+](Cc2ccc([N+](=O)[O-])cc2)cc1.[Br-] | > 46.4 µg/mL
27 | O=c1ccnc(Nc2ccc([N+](=O)[O-])cc2)[nH]1 | > 34.8 µg/mL
28 | CCN(Cc1nc2ccccc2n1C)c1ccccc1 | 30.7 µg/mL (≈ 116 µM)
29 | COc1ccccc1NC(=O)C1CC(C(C)C)OC1=O (stereo not given) | 38.3 µg/mL (≈ 138 µM)
30 | O=C(NC1CCCC1)c1cc(-c2ccc(Cl)cc2Cl)on1 | 1 µg/mL (≈ 3.08 µM)
31 | CSc1ccccc1NC(=O)c1ccc2c(c1)CCN2S(C)(=O)=O | 9.1 µg/mL (≈ 25.1 µM)
32 | CC(=O)Nc1ccc(OC(=O)N(C)c2ccc(C)cc2)cc1 | > 44.8 µg/mL
33 | Cc1ccccc1CN(C)CC(=O)Nc1c(C)cccc1C(C)C | 12.1 µg/mL (≈ 37.3 µM)
34 | Cc1ccc(NC(=O)CCNC(=O)c2ccco2)cc1F | > 43.5 µg/mL
35 | COC(=O)c1c(C)[nH]c(C)c1C(C)=O | > 29.3 µg/mL
36 | O=[N+]([O-])c1ccc(NC(=S)N2CCN(c3ccccn3)CC2)cc1 | 1.4 µg/mL (≈ 4.08 µM)
37 | OC1/C(=C/c2ccc(Cl)cc2Cl)N2CCC1CC2 (stereo not given) | 28 µg/mL (≈ 98.5 µM)
38 | Cc1ccc(NC(=O)C(C)SCc2ccccc2)cc1 (stereo not given) | 32.8 µg/mL (≈ 115 µM)
39 | COc1cccc(C(=O)Nc2cc3c4c(c2)CC(=O)N4CCC3)c1 | > 48.4 µg/mL
40 | CN(C)CCNC(=O)Cn1c(=O)c2cccn2c2ccc(F)cc21 | > 49.6 µg/mL
41 | Cc1sc2ncnc(N(C)C3CCCCC3)c2c1C | 1.1 µg/mL (≈ 3.99 µM)
42 | CCN(CC)S(=O)(=O)c1cccc(NC2=NCCCCC2)c1 | 46.8 µg/mL (≈ 145 µM)
43 | Cc1cccc(NS(=O)(=O)c2ccc(C)c(C(=O)NCc3cccnc3)c2)c1 | > 59.3 µg/mL
44 | O=C(Cc1ccc(Cl)cc1)OCC(=O)c1ccc[nH]1 | 27.3 µg/mL (≈ 98.3 µM)
45 | O=C(Nc1ccc(Nc2ccccc2)cc1)Nc1ccccc1Cl | < 0.2 µg/mL
46 | CN(C(=O)CO/N=C/c1ccc(Cl)cc1)c1ccccc1 | 44.6 µg/mL (≈ 147 µM)
47 | CCOC(=O)c1sc2ncc([N+](=O)[O-])cc2c1N | 3.8 µg/mL (≈ 14.2 µM)
48 | O=C(COC(=O)c1ccc2ccccc2n1)c1ccccc1 | 42.3 µg/mL (≈ 145 µM)

Row | SMILES | solubility kinetic
49 | Cn1c(=O)c2c(ncn2CC(=O)Nc2cc(S(=O)(=O)N3CCCCC3)ccc2Cl)n(C)c1=O | 10.5 µg/mL (≈ 21.2 µM)
50 | Cc1ccc2nc(COc3ccc(Cl)cc3)cc(=O)n2c1 | 0.5 µg/mL (≈ 1.66 µM)
51 | O=C(NCC(O)c1ccc([N+](=O)[O-])cc1)C1=COCCO1 (stereo not given) | > 44.1 µg/mL
52 | Cc1nnc(SCC(=O)NCC(=O)Nc2ccc(F)c(F)c2F)n1N | > 56.2 µg/mL
53 | O=[N+]([O-])c1cccc2nc(-c3ccccc3)c(-c3ccccc3)nc12 | < 0.2 µg/mL
54 | Cc1ccc(S(=O)(=O)CC(=O)Nc2ccc(F)c(F)c2F)cc1 | 4.8 µg/mL (≈ 14 µM)
55 | Cc1ccc(CC(=O)NC2CCCc3ccccc32)cc1C (stereo not given) | 3.2 µg/mL (≈ 10.9 µM)
56 | COc1ccc(-n2nc(C)c3sc(C)nc3c2=O)cc1 | > 43.1 µg/mL
57 | O=C(Cn1c2ccc(F)cc2c2nc3n(c(=O)c21)CCS3)N1CCCC1 | > 55.9 µg/mL
58 | CCOC(=O)C(C)Oc1ccc(NC(=O)C(Cl)Cl)cc1 (stereo not given) | > 48 µg/mL
59 | CCn1c(/N=C/c2ccccc2O)nc2ccccc21 | 36.9 µg/mL (≈ 139 µM)
60 | CCc1ccc(NC(=O)Nc2ccon2)cc1 | > 34.7 µg/mL
61 | CC(=O)NC(=O)c1cnn(-c2ccccc2)c1N | > 36.6 µg/mL
62 | O=C(c1ccc(-c2cc(Cl)ccc2Cl)o1)N1CCOCC1 | 11.3 µg/mL (≈ 34.6 µM)
63 | Cc1ncc(CN2CCN(C3CCCC3)C(CCO)C2)s1 (stereo not given) | 36 µg/mL (≈ 116 µM)
64 | COC(=O)/C=C/c1cnc2ccccc2c1 | > 32 µg/mL
65 | O=c1nc(SCc2ccc(Cl)cc2)nc(-c2ccccc2)[nH]1 | 4.5 µg/mL (≈ 13.6 µM)
66 | Cc1cccn2c(=O)c3cc(C(=O)NC4CCCCC4)c(=N)n(CCN4CCOCC4)c3nc12 | 52.2 µg/mL (≈ 112 µM)
67 | CN(C(=O)COC(=O)c1ccc(Br)c(S(=O)(=O)N2CCOCC2)c1)C1CCCCC1 | > 75.5 µg/mL
68 | Cc1cccc(C)c1N1CCN(S(=O)(=O)c2ccccc2)CC1 | < 0.4 µg/mL
69 | NCCc1cnc[nH]1 | 14.1 µg/mL (≈ 127 µM)
70 | O=C(NCCCn1ccnc1)C(=O)Nc1ccccc1 | 39.5 µg/mL (≈ 145 µM)
71 | CCOc1ccccc1NC(=O)NCc1ccc2c(c1)OCO2 | 0.8 µg/mL (≈ 2.55 µM)
72 | Cc1cccc(NC(=O)c2ccc3c(c2)CCN3S(C)(=O)=O)c1C | 1.6 µg/mL (≈ 4.65 µM)

Row | SMILES | solubility kinetic
73 | COC(=O)c1ccc(CSCC(=O)Nc2ccccc2)cc1 | > 47.3 µg/mL
74 | Cc1ccc(NC(=O)Nc2cnccn2)c(C)c1 | 2.2 µg/mL (≈ 9.08 µM)
75 | Cc1cc(C)c(C)c(OCC(=O)O/N=C(\N)c2cccnc2)c1 | 2.5 µg/mL (≈ 7.98 µM)
76 | Cc1csc(NC(=O)c2ccc[nH]c2=O)n1 | > 35.3 µg/mL
77 | O=C1CSC(c2cccnc2)N1c1ccccc1 (stereo not given) | > 38.4 µg/mL
78 | O=C(c1cccs1)N1CCN=C1SCc1ccccc1F | < 0.3 µg/mL
79 | Cc1cc(N2CCOCC2)nc2ccc(NC(=S)NC(C)C)cc12 | 4.6 µg/mL (≈ 13.4 µM)
80 | Cc1ccc2oc(=O)n(Cc3ccc(OC(C)C)cc3)c2c1 | 1 µg/mL (≈ 3.36 µM)
81 | CNC(=O)c1cnc(-c2ccccc2)nc1-c1ccccc1 | 14.8 µg/mL (≈ 51.2 µM)
82 | O=C(Nc1ccccc1C(=O)NC1CC1)c1ccc([N+](=O)[O-])o1 | > 47.3 µg/mL
83 | COc1ccccc1C(C[N+](=O)[O-])c1c(N)n(C)c(=O)n(C)c1=O (stereo not given) | > 50.1 µg/mL
84 | CCC(C)NC(=O)c1cc(-c2cccs2)nc2ccccc12 (stereo not given) | 2.4 µg/mL (≈ 7.73 µM)
85 | O=C(Nc1ccncc1)Nc1cccc(C(F)(F)F)c1 | 5.4 µg/mL (≈ 19.2 µM)
86 | O=C1CCCN1CCCNS(=O)(=O)c1ccccc1 | > 42.4 µg/mL
87 | CC(=O)NC1(C(F)(F)F)NC(=O)N(c2ccc(F)cc2)C1=O (stereo not given) | > 47.9 µg/mL
88 | COc1ccc(C(CC(=O)O)N2C(=O)CCC2=O)cc1 (stereo not given) | > 41.6 µg/mL
89 | O=C(COC(=O)C1CCC(=O)N1)Nc1cccc([N+](=O)[O-])c1 (stereo not given) | > 46.1 µg/mL
90 | Cn1ncc([N+](=O)[O-])c1C(=O)Nc1ccccc1C(=O)O | > 43.5 µg/mL
91 | COc1cc(/C=C(\C#N)C(N)=O)ccc1OCc1c(C)no[n+]1[O-] | 14.6 µg/mL (≈ 44.2 µM)
92 | Cc1ccc(CN(C(=O)c2ccco2)C2CCS(=O)(=O)C2)cc1 (stereo not given) | > 50 µg/mL
93 | Cc1nc(NCCOc2ccccc2)sc1C(=O)Nc1ccccc1 | 2 µg/mL (≈ 5.66 µM)
94 | O=C(O)c1ccccc1-c1ccccc1C(=O)Nc1ccccc1-c1ccccc1 | > 59 µg/mL
95 | CCOC(=O)c1c(C=O)c2ccccc2n1CC | 3.1 µg/mL (≈ 12.6 µM)
96 | O=C(Cc1ccccc1)Nc1cccc(NC(=O)c2ccccc2)c1 | 1.5 µg/mL (≈ 4.54 µM)

Row | SMILES | solubility kinetic
97 | O=C(Cc1ccccc1)Nc1ccc(NC(=O)c2ccccc2)c(Cl)c1 | 2.3 µg/mL (≈ 6.3 µM)
98 | CN1CCN(CCCNC(=O)CN2C(=O)COc3ccccc32)CC1 | 37.6 µg/mL (≈ 109 µM)
99 | COC(=O)NC1c2ccccc2Oc2ccccc21 | 0.7 µg/mL (≈ 2.74 µM)
100 | COc1ccc(-c2nc3ccccc3o2)cc1OC | < 0.5 µg/mL
101 | Cc1ccc(N2CC(O)Cn3c2nc2c3c(=O)n(C)c(=O)n2C)cc1 (stereo not given) | 24.5 µg/mL (≈ 71.8 µM)
102 | C=C(C)COc1ccc(C2NC(=O)c3ccccc3O2)cc1OCC (stereo not given) | 1.9 µg/mL (≈ 5.6 µM)
103 | COCCn1cnnc1SCC(=O)Nc1cc(C)on1 | > 44.6 µg/mL
104 | COc1ccc(CCNC(=O)c2cccnc2Cl)cc1OC | > 48.1 µg/mL
105 | CCOC(=O)Cc1csc(NC(=O)CCc2ccccc2)n1 | 41 µg/mL (≈ 129 µM)
106 | O=C(c1ccccc1Br)N1CCc2c([nH]c3ccccc23)C1 | 14.9 µg/mL (≈ 41.9 µM)
107 | CCOC(=O)c1sc(NC(=O)C2CC(=O)N(c3ccc(OCC)cc3)C2)nc1C (stereo not given) | 9.9 µg/mL (≈ 23.7 µM)
108 | O=C(CC1CCOCC1)Nc1ccc(Cl)c(Cl)c1 | > 43.2 µg/mL
109 | COC(=O)Cc1c(O)ccn(CCc2c[nH]c3ccccc23)c1=O | > 49 µg/mL
110 | Cc1ccc(S(=O)(=O)Nc2ccc3c(c2)nc(C)n3C)cc1 | 0.8 µg/mL (≈ 2.54 µM)
111 | O=S(=O)(NCCc1cccs1)c1ccc(Br)cc1 | 36.3 µg/mL (≈ 105 µM)
112 | Cc1nc(NC(=O)c2ccccc2)sc1C | 29.6 µg/mL (≈ 127 µM)
113 | COc1ccccc1CCNS(=O)(=O)c1ccc(C(=O)O)n1C | > 50.8 µg/mL
114 | Cc1ccc(-c2cc(C(=O)NCC3CCCO3)c3ccccc3n2)cc1C (stereo not given) | 4.7 µg/mL (≈ 13 µM)
115 | Cc1cc(C(=O)Nc2cc(Br)ccc2O)on1 | 7.6 µg/mL (≈ 25.6 µM)
116 | CC(CC(=O)Nc1ccccc1)n1ccnc1 (stereo not given) | > 34.4 µg/mL
117 | O=C(Nc1ccc(Cl)c(Cl)c1)N1CCCCCC1 | 0.9 µg/mL (≈ 3.13 µM)
118 | Cc1cc(C(=O)N2CCc3ccccc3C2)c(C)o1 | > 38.3 µg/mL
119 | Cc1cccc2cc(COC(=O)c3cccc([N+](=O)[O-])c3)c(=O)[nH]c12 | 1.5 µg/mL (≈ 4.43 µM)
120 | O=S(=O)(c1ccccc1)N1CCc2ccccc21 | 2 µg/mL (≈ 7.71 µM)
